The values that follow come from patent US7846963B2, “2-oxo-heterocyclic compounds and the pharmaceutical compositions comprising the same” (Korea Research Institute of Bioscience and Biotechnology, priority 2003, dated 2010).

A value given as a limit tells only on which side of the number the result lay.

This test deals with production of TNF-alpha in RAW 264.7 cells. In words: Inhibition of TNF-alpha production in LPS-treated RAW 264.7 cells, ELISA of culture supernatant. The conditions noted are these: Mus musculus, RAW264.7, Table 23, LPS 0.3 μg/ml, 24 hours, compounds up to 10 μM, IC50 unit inferred. It is filed as cell-based, mouse. How it is done:
To test the inhibiting activity of the compounds prepared from above Examples on the production of TNF-alpha, the concentration of TNF-alpha in the cell supernatant was measured.
Each 200 μl of RAW 264.7 cells (ATCC, USA), a mouse macrophage cell line was seeded onto each well of 96-well microtiter plate (Nunc, Sweden) to the concentration ranging from 1×10^6 cells/ml to 5×10^6 cells/ml, and incubated in DMEM (Dulbeco's modified eagles medium) media containing 5% FBS (fetal bovine serum) at 37° C. in 5% CO2 incubator.
Various concentrations of the compounds of the present invention ranging from […] to 10 μM and LPS (Sigma, USA) in the final concentration of 0.3 μg/ml were treated to activated cell simultaneously. The treated cells were cultured at 37° C. for 24 hours in 5% CO2 incubator and the cultured cells were collected after the cultivation
And then the concentration of TNF-alpha secreted from the culture supernatant of RAW 264.7 cells was determined by ELISA according to the manufacture's instruction (R&D Systems, Minneapolis, Minn.).
The result was shown in Table 23 (AA: IC50's<1, A: IC50's<5, B: IC50's<10, C: IC50's>10).
Usually IC50 stands for the concentration that gives 50% inhibition. Read a high IC50 as lower potency. `C=CCN1CCC=C(CCC(=O)NO)C1=O` [Example 101, 3-(1-Allyl-2-oxo-1,2,5,6-tetrahydro-pyridin-3-yl)-N-hydroxy-propionamide] gave a half-inhibitory concentration (IC50) of under 1 µM.
The value for `CN1CCC=C(CCC(=O)NO)C1=O` [Example 102, N-hydroxy-3-(1-methyl-2-oxo-1,2,5,6-tetrahydro-pyridin-3-yl)-propionamide] was under 1 µM.
Compound `O=C(CCC1=CCCNC1=O)NOCc1ccccc1` [Example 100, N-Benzyloxy-3-(2-oxo-1,2,5,6-tetrahydro-pyridin-3-yl)-propionamide] came in with an IC50 of under 5 µM.
The value for `O=C(CCC1=CCN(CCc2ccc(Br)cc2)C1=O)NO` [Example 35, 3-{1-[2-(4-bromo-phenyl)-ethyl]-2-oxo-2,5-dihydro-1H-pyrrol-3-yl}-N-hydroxy-propionamide] was under 5 µM; that for `O=C(CCC1=CCN(CCc2ccc3ccccc3c2)C1=O)NO` [Example 53, N-hydroxy-3-[1-(2-naphthalene-2-yl-ethyl)-2-oxo-2,5-dihydro-1H-pyrrol-3-yl]-propionamide] was under 1 µM; that for `O=C(CC1=CCN(CCc2ccccc2)C1=O)NO` [Example 22, N-hydroxy-2-(2-oxo-1-phenethyl-2,5-dihydro-1H-pyrrol-3-yl)-acetamide] was over 10 µM.
As for `COc1ccc(CN2CCCC(CC(=O)NO)C2=O)c(OC)c1` (stereo not shown) [Example 92, 2-[1-(2,4-dimethoxy-benzyl)-2-oxopiperidine-3-yl]-N-hydroxy-acetamide], the figure is under 5 µM; as for `O=C(CC1=CCN(Cc2ccccc2)C1=O)NO` [Example 20, 2-(1-benzyl-2-oxo-2,5-dihydro-1H-pyrrol-3-yl)-N-hydroxy-acetamide], over 10 µM; as for `O=C(O)CCC1=CCCN(Cc2ccc(NC(=O)c3ccccc3)cc2)C1=O` [Example 79, 3-[1-(4-benzoylamino-benzyl)-2-oxo-1,2,5,6-tetrahydro-pyridin-3-yl]-propionic acid], under 5 µM.
Consider `CC(C)c1ccc(CCCN2CC=C(CCC(=O)NO)C2=O)cc1` [Example 43, N-hydroxy-3-{1-[3-(4-isopropyl-phenyl)-propyl]-2-oxo-2,5-dihydro-1H-pyrrol-3-yl]-propionamide], for which the IC50 is under 5 µM.
As for `O=C(CCC1=CCN(CCCc2ccc(Br)cc2)C1=O)NO` [Example 44, 3-{1-[3-(4-bromo-phenyl)-propyl]-2-oxo-2,5-dihydro-1H-pyrrol-3-yl]-N-hydroxy-propionamide], the figure is under 5 µM; as for `Cc1ccc(CCCN2CC=C(CCC(=O)NO)C2=O)cc1` [Example 40, N-hydroxy-3-[2-oxo-1-(3-p-tolyl-propyl)-2,5-dihydro-1H-pyrrol-3-yl]-propionamide], under 1 µM.
As for `O=C(CCC1=CCN(CCc2cccc3ccccc23)C1=O)NO` [Example 52, N-hydroxy-3-[1-(2-naphthalene-1-yl-ethyl)-2-oxo-2,5-dihydro-1H-pyrrol-3-yl]-propionamide], the figure is under 5 µM.
The value for `O=C(CCC1=CCN(Cc2ccc(OCc3ccccc3)cc2)C1=O)NO` [Example 14, 3-[1-(4-benzyloxy-benzyl)-2-oxo-2,5-dihydro-1H-pyrrol-3-yl]-N-hydroxy-propionamide] was over 10 µM; that for `Cc1ccccc1CN1CC=C(CCC(=O)NO)C1=O` [Example 6, N-hydroxy-3-[1-(2-methyl-benzyl)-2-oxo-2,5-dihydro-1H-pyrrol-3-yl]-propionamide] was under 5 µM; that for `COc1ccc(CN2CC=C(CCC(=O)NO)C2=O)cc1` [Example 11, N-hydroxy-3-[1-(4-methoxy-benzyl)-2-oxo-2,5-dihydro-1H-pyrrol-3-yl]-propionamide] was under 1 µM.
With `O=C(CCC1=CCN(CCCc2ccc(Cl)cc2)C1=O)NO` [Example 45, 3-{1-[3-(4-chloro-phenyl)-propyl]-2-oxo-2,5-dihydro-1H-pyrrol-3-yl]-N-hydroxy-propionamide], the IC50 was under 5 µM.
The value for `O=C(CCC1=CCCN(CCc2cccs2)C1=O)NO` [Example 104, N-hydroxy-3-[2-oxo-1-(2-thiophen-2-yl-ethyl)-1,2,5,6-tetrahydro-pyridin-3-yl]-propionamide] was over 10 µM.
The value for `O=C(CCC1=CCN(CCc2ccc(F)cc2)C1=O)NO` [Example 30, 3-{1-[2-(4-fluoro-phenyl)-ethyl]-2-oxo-2,5-dihydro-1H-pyrrol-3-yl}-N-hydroxy-propionamide] was under 5 µM; that for `O=C(O)CC1=CCCN(CCc2ccccc2)C1=O` [Example 89, (2-oxo-1-phenethyl-1,2,5,6-tetrahydro-pyridin-3-yl)-acetic acid] was under 5 µM.
The value for `O=C(CCCC1=CCCN(CCc2ccccc2)C1=O)NO` [Example 96, 4-(1-phenethyl-2-oxo-1,2,5,6-tetrahydro-pyridin-3-yl)-N-hydroxy-butylamide] was under 5 µM.
Take `O=C(O)CCC1=CCN(Cc2ccccc2)C1=O` [Example 17, 3-(1-benzyl-2-oxo-2,5-dihydro-1H-pyrrol-3-yl)-propionic acid]: the half-inhibitory concentration (IC50) is over 10 µM.
As for `O=C(CC1=CCCN(Cc2ccccc2)C1=O)NO` [Example 83, 2-(1-benzyl-2-oxo-1,2,5,6-tetrahydro-pyridin-3-yl)-N-hydroxy-acetamide], the figure is under 5 µM; as for `O=C(CCC1=CCN(CCc2ccc([N+](=O)[O-])cc2)C1=O)NO` [Example 33, N-hydroxy-3-{1-[2-(4-nitro-phenyl)-ethyl]-2-oxo-2,5-dihydro-1H-pyrrol-3-yl}-propionamide], under 10 µM.
As for `COc1ccc(CN2CCC=C(CCCC(=O)NO)C2=O)cc1` [Example 95, 4-[1-(4-methoxy-benzyl)-2-oxo-1,2,5,6-tetrahydro-pyridin-3-yl]-N-hydroxy-butylamide], the figure is under 5 µM.
The value for `O=C(CC1=CCCN(Cc2ccc([N+](=O)[O-])cc2)C1=O)NO` [Example 84, N-hydroxy-2-[1-(4-nitro-benzyl)-2-oxo-1,2,5,6-tetrahydro-pyridin-3-yl)-N-hydroxy-acetamide] was under 5 µM; that for `O=C(O)CCC1=CCCN(Cc2ccc([N+](=O)[O-])cc2)C1=O` [Example 65, 3-[1-(4-nitro-benzyl)-2-oxo-1,2,5,6-tetrahydro-pyridin-3-yl)-propionic acid] was over 10 µM.
Compound `CN1CC=C(CCC(=O)NO)C1=O` [Example 50, N-hydroxy-3-(1-methyl-2-oxo-2,5-dihydro-1H-pyrrol-3-yl)-propionamide] displayed an IC50 of over 10 µM.
The value for `O=C(CC1CCN(CCc2ccccc2)C1=O)NO` (stereo not shown) [Example 27, N-hydroxy-2-(2-oxo-1-phenethyl-pyrrolidin-3-yl)-acetamide] was over 10 µM; that for `O=C(CCC1=CCN(Cc2ccc(Cl)cc2)C1=O)NO` [Example 13, 3-[1-(4-chloro-benzyl)-2-oxo-2,5-dihydro-1H-pyrrol-3-yl]-N-hydroxy-propionamide] was under 5 µM; that for `O=C(CCC1=CCN(Cc2ccc(NC(=O)c3ccccc3)cc2)C1=O)NO` [Example 18, N-{4-[3-(2-hydroxycarbamoyl-ethyl)-2-oxo-2,5-dihydro-pyrrole-1-yl-methyl]-phenyl}-benzamide] was over 10 µM.
The value for `COc1ccc(CN2CCC=C(CCC(=O)NO)C2=O)c(OC)c1` [Example 57, 3-[1-(2,4-Dimethoxybenzyl)-2-oxo-1,2,5,6-tetrahydropyridin-3-yl]N-hydroxypropionamide] was under 10 µM; that for `COc1ccc(CN2CC=C(CCC(=O)O)C2=O)c(OC)c1` [Example 16, 3-[1-(2,4-dimethoxy-benzyl)-2-oxo-2,5-dihydro-1H-pyrrol-3-yl]-propionic acid] was over 10 µM.
The value for `O=C(CCC1=CCN(CCCc2ccc(-c3ccccc3)cc2)C1=O)NO` [Example 55, 3-[1-(3-biphenyl-4-yl-propyl)-2-oxo-2,5-dihydro-1H-pyrrol-3-yl]-N-hydroxy-propionamide] was under 5 µM; that for `Cc1ccc(S(=O)(=O)Nc2ccc(CN3CCC=C(CCC(=O)O)C3=O)cc2)cc1` [Example 80] was under 1 µM; that for `COc1cccc(CN2CC=C(CCC(=O)NO)C2=O)c1` [Example 10, N-hydroxy-3-[1-(3-methoxy-benzyl)-2-oxo-2,5-dihydro-1H-pyrrol-3-yl]-propionamide] was under 5 µM.
`O=C(O)CCC1=CCCNC1=O` [Example 99, 3-(2-oxo-1,2,5,6-tetrahydro-pyridin-3-yl)-propionic acid] displayed an IC50 of under 10 µM.
The value for `O=C(CCC1=CCN(Cc2ccccc2)C1=O)NO` [Example 2, 3-(1-benzyl-2-oxo-2,5-dihydro-1H-pyrrol-3-yl)-N-hydroxy-propionamide] was under 5 µM.
The value for `O=C(CCC1=CCN(CCc2ccccc2)C1=O)NO` [Example 3, N-hydroxy-3-(2-oxo-1-phenethyl-2,5-dihydro-1H-pyrrol-3-yl)-propionamide] was under 5 µM; that for `COc1ccc(CN2CC=C(CCC(=O)NO)C2=O)c(OC)c1` [Example 1, 3-[1-(2,4-Dimethoxybenzyl)-2-oxo-2,5-dihydro-1H-pyrrol-3-yl]-N-hydroxypropionamide] was under 10 µM.
